According to US20120183489A1, “COMPOSITIONS COMPRISING METALLATED MALODOR CONTROL POLYMERS” (priority 2011, published 2012):

Legend:
[1] = benchmark values; cited from earlier work
[2] = Sulfur odor control performance, headspace SPME GC/MS, butanethiol; details: 5 ml test solution spiked with 3 ppm; 2 h room temperature, 30 min 35° C.; Control = 1.0
Procedure: (§1) Butanethiol and dipropoyl sulfide were chosen as chemical surrogates for sulfur containing odors such as kitchen (onion/garlic), sewage, etc. These two molecules also enable the assessment of efficacy of polymer for sulfur molecules having different degrees of hydrophobicity (e.g more hydrophobic dipropylsulfide is usually harder to mitigate with hydrophilic technologies such as cyclodextrin). 5 ml test solution was placed in a GC-MS vial and spiked with 3 parts-per-million of butanethiol or dipropylsulfide. The solutions were first equilibrated at room temperature for 2 hours, then incubated at 35° C. for 30 minutes. The headspace of each vial was finally sampled using a PDMS/SPME fiber and analyzed by GC/MS. The reductions in head space concentrations of sulfur molecules were measured and the data were normalized to Control (Table 4).

[3] = tested on: microbes of soiled sponge samples; experiment: Odor prevention through microbe reduction, SOLARIS colorimetric detection on soiled sponge; type: cell-based; details: soiled sponge treated 15 min, dried 12 h; incubated 120 hrs at 37° C.; Control 2.35 hrs
Procedure: The Control formulation containing no malodor control polymer or zinc salt, and Formulations containing individual polymers, zinc salts, and zinc-polymer complexes are compared for their effect on odor prevention, through microbe reduction.
Soiled sponge samples were cut into 1×6 cm strips and treated with the solutions (Table 5) for 15 minutes and dried at ambient temperature for 12 hours. The treated 1 cm strips were then cut into 1×1 cm pieces, placed into SOLARIS scintillation vials, and 1 ml of MOPS buffer was added. The open vials were placed into outer SOLARIS vials containing thymolphthalein blue pH indicator and the vials were finally capped. The sealed vials were placed into a SOLARIS machine and incubated for 120 hrs at 37° C. Colorimetric measurements were conducted according to SOLARIS VIV protocol and the detection times of acidic respiratory byproducts were record (Table 5).

[4] = Malodor control performance, headspace SPME GC/MS, isovaleric acid; details: 5 ml test solution spiked with 5 microliters; 2 h room temperature, 30 min 35° C.; Control = 1.0; pH 7 (ZnCl2 pH 5)
Procedure: (§2) This example illustrates the malodor efficacy of the HMPs of the present invention. Isovaleric acid was chosen as a chemical surrogate for body odor while butylamine was used as a representative for amine-containing odors such as fish, pet urine, etc. Hydrophobic greasy cooking odors were represented by aldehydes such as nonanal. The solutions are first equilibrated at room temperature for 2 hours, then incubated at 35° C. for 30 minutes. The headspace of each vial is finally sampled using a polydimethyl siloxane (PDMS)/Solid-Phase-Micro-Extraction (SPME) fiber and analyzed by GC/MS. The reductions in head space concentrations of odor molecules are measured and the data are normalized to Control. Lower numbers denote […] of malodor molecules present in the solution that are attributed to high malodor control efficacy of polymers.

[5] = Sulfur odor control performance, headspace SPME GC/MS, dipropylsulfide; details: 5 ml test solution spiked with 3 ppm; 2 h room temperature, 30 min 35° C.; Control = 1.0
Procedure: as §1

[6] = Malodor control performance, headspace SPME GC/MS, nonanal; details: 5 ml test solution spiked with 5 microliters; 2 h room temperature, 30 min 35° C.; Control = 1.0; pH 7 (ZnCl2 pH 5)
Procedure: as §2

[7] = Malodor control performance, headspace SPME GC/MS, butylamine; details: 5 ml test solution spiked with 5 microliters; 2 h room temperature, 30 min 35° C.; Control = 1.0; pH 7 (ZnCl2 pH 5)
Procedure: as §2

| Molecule | ambient temperature water solubility (benchmark) [1] | head space concentration of Butanethiol normalized to Control [2] | Respiratory Byproducts Detection Time [3] | head space concentration of Isovaleric Acid (Body) normalized to Control [4] | head space concentration of Dipropylsulfide normalized to Control [5] | head space concentration of Nonanal (Grease) normalized to Control [6] | head space concentration of Butylamine (Fish) normalized to Control [7] |
| --- | --- | --- | --- | --- | --- | --- | --- |
| OC[C@H]1O[C@@H]2O[C@H]3[C@H](O)[C@@H](O)[C@@H](O[C@H]4[C@H](O)[C@@H](O)[C@@H](O[C@H]5[C@H](O)[C@@H](O)[C@@H](O[C@H]6[C@H](O)[C@@H](O)[C@@H](O[C@H]7[C@H](O)[C@@H](O)[C@@H](O[C@H]8[C@H](O)[C@@H](O)[C@@H](O[C@H]1[C@H](O)[C@H]2O)O[C@@H]8CO)O[C@@H]7CO)O[C@@H]6CO)O[C@@H]5CO)O[C@@H]4CO)O[C@@H]3CO [beta-cyclodextrin] | 1.8 g/100 ml | – | – | – | – | – | – |
| [Cl-].[Cl-].[Zn+2] [ZnCl2, zinc chloride] | – | 0.8 | 3.38 h | 1.0 | 1.0 | 1.0 | 0.0 |
| hydroxypropyl modified beta cyclodextrin | ≥ 60 g/100 ml | – | – | – | – | – | – |
